Tested on: mice
Experiment: Neuropharmacological assay (SmartCube), behavioral signature of compound-treated mice
Type: in vivo
Details: i.p. 15 min before behavioral test, most efficacious dose(s) of 3 doses
Source text: Neurosci. […] As reported in Roberds, because psychiatric diseases generally result from disorders of cell-cell communication or circuitry, intact systems are useful in detecting improvement in disease-relevant endpoints. These endpoints are typically behavioral in nature, often requiring human observation and interpretation. To facilitate testing of multiple compounds for behavioral effects relevant to psychiatric disease, PsychoGenics, Inc. (Tarrytown, N.Y., “PGI”) developed SmartCube™, an automated system in which behaviors of compound-treated mice are captured by digital video and analyzed with computer algorithms. […] PGI Analytical Systems uses data from SmartCube™ to compare the behavioral signature of a test compound to a database of behavioral signatures obtained using a large set of diverse reference compounds. (The composition of the database as well as validation of the method is further described in Roberds). In this way, the neuropharmacological effects of a test compound can be predicted by similarity to major classes of compounds, such as antipsychotics, anxiolytics and antidepressants.
The SmartCube™ system produces an activity signature indicating the probability that the activity of the test compound at the administered dose matches a given class of neuropharmacological agents. (See, e.g., Roberds, FIGS. 2 and 3). The test compound is simultaneously compared against multiple classes of agents; thus, a separate probability is generated for each behavioral effect measured (e.g., anxiolytic activity, analgesic activity, etc.). In Table 4, these probabilities are reported for each behavioral effect measured as follows:
Provided compounds were dissolved in a mixture of Pharmasolve™ (N-methyl-2-pyrrolidone), polyethylene glycol and propylene glycol, and were injected i.p. 15 min. before the behavioral test. For each compound, injections were administered at 3 different doses. For each behavioral effect measured, results for the most efficacious dose(s) are presented.

| Structure (SMILES) | AD: ADHD (probability that behavioral signature matches class) | AG: analgesic (probability that behavioral signature matches class) | AX: anxiolytic (probability that behavioral signature matches class) | CE: cognitive enhancer (probability that behavioral signature matches class) | DP: anti-depressant (probability that behavioral signature matches class) | HA: hallucinogen (probability that behavioral signature matches class) | MS: mood stabilizer (probability that behavioral signature matches class) | PS: anti-psychotic (probability that behavioral signature matches class) | SD: sedative hypnotic (probability that behavioral signature matches class) | UN: uncharacterized CNS activity (probability that behavioral signature matches class) | XG: anxiogenic (probability that behavioral signature matches class) |
| --- | --- | --- | --- | --- | --- | --- | --- | --- | --- | --- | --- |
| Fc1cccc2c1[C@@H]([C@@H]1CCCN1)OCC2 [Compound I-2, (S)-2-((S)-8-fluoroisochroman-1-yl)pyrrolidine] | + (LOQ ≤ + <5%) | + (LOQ ≤ + <5%) | ++ (5% ≤ ++ <25%) | + (LOQ ≤ + <5%) | + (LOQ ≤ + <5%) | + (LOQ ≤ + <5%) | ++ (5% ≤ ++ <25%) | ++ (5% ≤ ++ <25%) | ++ (5% ≤ ++ <25%) | + (LOQ ≤ + <5%) | + (LOQ ≤ + <5%) |
| Fc1cccc2c1[C@@H]([C@H]1CCCN1)OCC2 [Compound I-3, (R)-2-((S)-8-fluoroisochroman-1-yl)pyrrolidine] | + (LOQ ≤ + <5%) | ++ (5% ≤ ++ <25%) | ++ (5% ≤ ++ <25%) | ++ (5% ≤ ++ <25%) | +++ (25% ≤ +++ <50%) | + (LOQ ≤ + <5%) | ++ (5% ≤ ++ <25%) | ++ (5% ≤ ++ <25%) | ++ (5% ≤ ++ <25%) | +++ (25% ≤ +++ <50%) | + (LOQ ≤ + <5%) |
| Fc1cccc2c1[C@H]([C@H]1CCCN1)OCC2 [Compound I-4, (R)-2-((R)-8-fluoroisochroman-1-yl)pyrrolidine] | + (LOQ ≤ + <5%) | ++ (5% ≤ ++ <25%) | +++ (25% ≤ +++ <50%) | ++ (5% ≤ ++ <25%) | ++ (5% ≤ ++ <25%) | + (LOQ ≤ + <5%) | + (LOQ ≤ + <5%) | ++ (5% ≤ ++ <25%) | + (LOQ ≤ + <5%) | + (LOQ ≤ + <5%) | + (LOQ ≤ + <5%) |
| Fc1ccc2c(c1)[C@@H]([C@@H]1CCCN1)OCC2 [Compound I-6, (2S)-2-((S)-7-fluoroisochroman-1-yl)pyrrolidine] | + (LOQ ≤ + <5%) | + (LOQ ≤ + <5%) | ++ (5% ≤ ++ <25%) | + (LOQ ≤ + <5%) | ++ (5% ≤ ++ <25%) | + (LOQ ≤ + <5%) | + (LOQ ≤ + <5%) | ++ (5% ≤ ++ <25%) | + (LOQ ≤ + <5%) | +++ (25% ≤ +++ <50%) | + (LOQ ≤ + <5%) |
